The assay deals with staphylococcus aureus. Nature of the assay: Antimicrobial inhibition zone test based on ATCC6538p. Format: cell-based. Here is the method: The antimicrobial adhesive prepared by the foregoing method is placed in a 7 ml glass vial and it is used to perform stability test for Ag/PP particulates, polymerization test for the cyanoacrylate monomers (as shown in Table 1), antimicrobial test for staphylococcus aureus (as shown in Table 2) and antimicrobial test for escherichia coli (as shown in Table 3).

On to `C=C(C#N)C(=O)OC(C)CCCCCC` (centres unmarked) [Experiment C, 2-octyl cyanoacrylate], for which the “Increased in the diameter of inhibition zone (%) (compared to Control)” value (compared to Control (filter paper)) came to 16.4%. In addition, the “Diameter of inhibition zone” value (on filter paper, ATCC6538p) is recorded as 0.93 cm.

The values are drawn from patent US20150290357A1, “ANTIMICROBIAL ADHESIVE” (GeneJet Biotech, Inc., priority 2014, published 2015).
